Numbered stars: 1 amine (or outer) side, 2 acyl side, 3 side chain; on linkers, the order of the positions; unused ones are H or OH. Square brackets hold non-standard residues; d marks the D form. Suc = O=C(CCC(=O)[*:2])[*:1]; NMeV = CN[C@H](C(=O)O)C(C)C; βAla = NCCC(=O)O
System: Tilapia fish
Assay: Experiment #3: tilapia fed AN6-coated feed, treatment schedules 1 to 8 (survival, weight, length, size distribution, FCR)
Format: in vivo
Conditions: for increase in average fish weight: D279, compared to control; for % big fish (Big fish 279 dph >1000 g) / % small fish (Small fish 279 dph >476 g) / Δ Treatment - Control (%) big fish (>1000 g) / Δ Treatment - Control (%) small fish (>476 g) / Big fish # (Big fish 279 dph >1000 g) / Small fish # (Small fish 279 dph): 279 dph; for Average FCR/cage / Average density (body/cage) / Average weight gain/fish (g) / Average weight/fish (g) / Total weight/cage (g): D 236 to D 279, % change relative to control
Method: The following fish feed was used in this experiment: MeM (powder, manufactured by Bern Aqua), Nanolis P1, P2 (pellet sizes of 1 mm, 1.2-1.5 mm, respectively, manufactured by Ocialis) and Tilaphi 2, 3 & 4 (pellet sizes of 2 mm, 3-4 mm & 5.5 mm manufactured by Ocialis). The feed content is in described in Table 4.
Feed was coated using the following general procedure: Different amounts of the peptide AN6 (SEQ ID NO: 6) were prepared by dissolving the peptide in Tris-HCl solution (50 mM, pH=8.8) in ratio of 15 mg peptide to 1.25 ml Tris-HCl solution. Then, each of the various solutions was mixed with 3 Kg of the basic feed pellets (depending on fish size) using an electric mixer. The peptide-feed mixtures where then dried either in oven at 40° C. for 24 hours or in drying drum (at room temperature) for few hours to form coated pellets.
Tilapia fish (n=4800) were raised from day 10 (0.05 g) post-hatch (dph) in indoor tanks and then transferred to outdoor cages in ponds (40-279 dph). Each cage/tank is an experimental unit. The fish were fed to apparent satiation 2-4 times a day with feed appropriate to their age and treatment as described in Table 5.
The trial included total 48 cages representing 8 treatments, with 6 repeats each. Each cage contained about 100 fish. […] Fed to fish throughout the entire growth-trial period (for 279 days); • Treatment 2 (5 ppm from 10 dph for 120 days): The control diet with the addition of 5 mg peptide/kg of diet (Feed F). Fish were fed the peptide enriched diet for 120 days (4 months), from 10 days of age (D0—the first day of the experiment) to 130 days of age (D120), and the control diet during the last 6 months (159 days) (Feed E); • Treatment 3 (10 ppm from 10 dph for 60 days): The control diet with the addition of 10 mg peptide/kg of diet (Feed G). […] Fish were fed the peptide enriched diet for 90 days (3 months) from 10 days of age (D0) to 100 days of age (D90) and the control diet for the last 7 months (189 days) (Feed E); • Treatment 5 (10 ppm from 10 dph for 120 days): The control diet with the addition of 10 mg peptide/kg of diet (Feed G). Fish were fed the peptide enriched diet for 120 days (4 months) from 10 days of age (D0) to 130 days of age (D120) and the control diet for the last 6 months (159 days) (Feed E); • Treatment 6 (10 ppm from 100 dph for 30 days): The control diet with the addition of 10 mg peptide/kg of diet (Feed G). Fish were fed the peptide enriched diet for 30 days (1 month) from 100 days of age (D90) to 130 days of age (D120) and the control diet for the first three months (90 days from D0 to D90) and the last 6 months (159 days) (Feed E); • Treatment 7 (30 ppm from 10 dph for 60 days): The control diet with the addition of 30 mg peptide/kg of diet (Feed H). Fish were fed the peptide enriched diet for 60 days (2 months) from 10 days of age (D0) to 70 days of age (D60), and the control diet during the last 8 months (219 days) (Feed E); • Treatment 8 (30 ppm from 10 dph for 90 days): The control diet with the addition of 30 mg peptide/kg of diet (Feed H). Fish were fed the peptide enriched diet for 90 days (3 months) from 10 days of age (D0) to 100 days of age (D90) and the control diet for the last 7 months (189 days) (Feed E).
During the experimental period, fish weight and length were measured once a month. Individual fish sex was determined at days 96 and 279 of the experiment. Average fish weight per cage were calculated for each measurement period (FIG. 8). […] Between two weight measurements, average weight gain (FIG. 9A) and daily growth rates (FIG. 9B) were calculated by subtracting the average weight at the beginning and end of the measuring period and dividing by the number of days between.
In order to determine the efficiency of feed conversion into fish substance in experiments (#1, #2, #3), FCR values which reflect the amount of feed needed to grow a kilogram fish, were calculated for each period and for the entire fish growth period. […]

[1] = AN6 for 60 days, 10 mg/Kg feed (Treatment 3)
[2] = AN6 for 90 days, 30 mg/Kg feed (Treatment 8)
[3] = AN6 treated groups (Treatments 2, 3, or 8)
[4] = Treatment 2 (5 ppm from 10 dph for 120 days)
[5] = Treatment 2 (5 ppm from 10 dph for 120 days), of 451 fish
[6] = Treatment 2 (5 ppm from 10 dph for 120 days), female fish, D 96
[7] = Treatment 2 (5 ppm from 10 dph for 120 days), female fish, D 279
[8] = Treatment 2 (5 ppm from 10 dph for 120 days), male fish, D 96
[9] = Treatment 2 (5 ppm from 10 dph for 120 days), male fish, D 279
[10] = Treatment 3 (10 ppm from 10 dph for 60 days)
[11] = Treatment 3 (10 ppm from 10 dph for 60 days), of 480 fish
[12] = Treatment 3 (10 ppm from 10 dph for 60 days), female fish, D 96
[13] = Treatment 3 (10 ppm from 10 dph for 60 days), female fish, D 279
[14] = Treatment 3 (10 ppm from 10 dph for 60 days), male fish, D 96
[15] = Treatment 3 (10 ppm from 10 dph for 60 days), male fish, D 279
[16] = Treatment 4 (10 ppm from 10 dph for 90 days)
[17] = Treatment 4 (10 ppm from 10 dph for 90 days), of 463 fish
[18] = Treatment 4 (10 ppm from 10 dph for 90 days), female fish, D 96
[19] = Treatment 4 (10 ppm from 10 dph for 90 days), female fish, D 279
[20] = Treatment 4 (10 ppm from 10 dph for 90 days), male fish, D 96
[21] = Treatment 4 (10 ppm from 10 dph for 90 days), male fish, D 279
[22] = Treatment 5 (10 ppm from 10 dph for 120 days)
[23] = Treatment 5 (10 ppm from 10 dph for 120 days), of 441 fish

Succ-Asp-Ser- D-Trp -N(Me)Val-βAla-Leu-Met-NH2 (Suc-DS[dW][NMeV][βAla]LM-NH2; SMILES CSCC[C@H](NC(=O)[C@H](CC(C)C)NC(=O)CCNC(=O)[C@H](C(C)C)N(C)C(=O)[C@@H](Cc1c[nH]c2ccccc12)NC(=O)[C@H](CO)NC(=O)[C@H](CC(=O)O)NC(=O)CCC(=O)O)C(N)=O) [AN6]
increase in average fish weight (5 mg AN6/Kg for 120 days (Treatment 2)): +7.11%
increase in average fish weight (10 mg AN6/Kg feed from 10 dph for 120 days (Treatment 5)): +6.41%
increased daily growth rate, on average compared to the control (5 ppm and 10 ppm AN6 for sufficient time (>90 days), throughout the experimental period): 5.8%
FCR [1]: improved FCR significantly
growth [1]: did not affect growth
FCR [2]: improved FCR significantly
growth [2]: did not affect growth
proportion of large fish (>1000 g) [3]: higher proportion
proportion of small fish (<476 g) [3]: lower proportion
% big fish (Big fish 279 dph >1000 g) [4]: 16.6%
% small fish (Small fish 279 dph >476 g) [4]: 4.7%
Δ Treatment - Control (%) big fish (>1000 g) [4]: 6.4%
Δ Treatment - Control (%) small fish (>476 g) [4]: −4.5%
Big fish # (Big fish 279 dph >1000 g) [5]: 75
Small fish # (Small fish 279 dph) [5]: 21
Average FCR/cage [4]: −2.14%
Average density (body/cage) [4]: 0.45%
Average weight gain/fish (g) [4]: 6.18%
Average weight/fish (g) [4]: 6.41%
Total weight/cage (g) [4]: 6.71%
Length/fish (cm) Mean [6]: 15.85 cm
Weight/fish (g) Mean [6]: 87.35 g
Δ Mean % (Treatment vs. control) Length/fish [6]: 0.38%
Δ Mean % (Treatment vs. control) Weight/fish [6]: 6.24%
Length/fish (cm) Mean [7]: 30.76 cm
Weight/fish (g) Mean [7]: 651.83 g
Δ Mean % (Treatment vs. control) Length/fish [7]: 2.09%
Δ Mean % (Treatment vs. control) Weight/fish [7]: 8.30%
Length/fish (cm) Mean [8]: 17.22 cm
Weight/fish (g) Mean [8]: 111.8 g
Δ Mean % (Treatment vs. control) Length/fish [8]: 0.00%
Δ Mean % (Treatment vs. control) Weight/fish [8]: 5.97%
Length/fish (cm) Mean [9]: 34.37 cm
Weight/fish (g) Mean [9]: 916.05 g
Δ Mean % (Treatment vs. control) Length/fish [9]: −0.03%
Δ Mean % (Treatment vs. control) Weight/fish [9]: 5.86%
% big fish (Big fish 279 dph >1000 g) [10]: 16.5%
% small fish (Small fish 279 dph >476 g) [10]: 4.8%
Δ Treatment - Control (%) big fish (>1000 g) [10]: 6.2%
Δ Treatment - Control (%) small fish (>476 g) [10]: −4.3%
Big fish # (Big fish 279 dph >1000 g) [11]: 79
Small fish # (Small fish 279 dph) [11]: 23
Average FCR/cage [10]: −4.28%
Average density (body/cage) [10]: 6.91%
Average weight gain/fish (g) [10]: 9.19%
Average weight/fish (g) [10]: 3.44%
Total weight/cage (g) [10]: 10.27%
Length/fish (cm) Mean [12]: 16.03 cm
Weight/fish (g) Mean [12]: 87.67 g
Δ Mean % (Treatment vs. control) Length/fish [12]: 1.52%
Δ Mean % (Treatment vs. control) Weight/fish [12]: 6.63%
Length/fish (cm) Mean [13]: 30.5 cm
Weight/fish (g) Mean [13]: 629.02 g
Δ Mean % (Treatment vs. control) Length/fish [13]: 1.23%
Δ Mean % (Treatment vs. control) Weight/fish [13]: 4.51%
Length/fish (cm) Mean [14]: 17.19 cm
Weight/fish (g) Mean [14]: 106.51 g
Δ Mean % (Treatment vs. control) Length/fish [14]: −0.17%
Δ Mean % (Treatment vs. control) Weight/fish [14]: 0.96%
Length/fish (cm) Mean [15]: 34.14 cm
Weight/fish (g) Mean [15]: 877.38 g
Δ Mean % (Treatment vs. control) Length/fish [15]: −0.70%
Δ Mean % (Treatment vs. control) Weight/fish [15]: 1.39%
% big fish (Big fish 279 dph >1000 g) [16]: 14.7%
% small fish (Small fish 279 dph >476 g) [16]: 4.8%
Δ Treatment - Control (%) big fish (>1000 g) [16]: 4.4%
Δ Treatment - Control (%) small fish (>476 g) [16]: −4.4%
Big fish # (Big fish 279 dph >1000 g) [17]: 68
Small fish # (Small fish 279 dph) [17]: 22
Average FCR/cage [16]: −2.14%
Average density (body/cage) [16]: 3.34%
Average weight gain/fish (g) [16]: 1.69%
Average weight/fish (g) [16]: 3.89%
Total weight/cage (g) [16]: 7.37%
Length/fish (cm) Mean [18]: 15.96 cm
Weight/fish (g) Mean [18]: 86.4 g
Δ Mean % (Treatment vs. control) Length/fish [18]: 1.08%
Δ Mean % (Treatment vs. control) Weight/fish [18]: 5.08%
Length/fish (cm) Mean [19]: 30.48 cm
Weight/fish (g) Mean [19]: 631.17 g
Δ Mean % (Treatment vs. control) Length/fish [19]: 1.16%
Δ Mean % (Treatment vs. control) Weight/fish [19]: 4.86%
Length/fish (cm) Mean [20]: 17.26 cm
Weight/fish (g) Mean [20]: 111.87 g
Δ Mean % (Treatment vs. control) Length/fish [20]: 0.23%
Δ Mean % (Treatment vs. control) Weight/fish [20]: 6.04%
Length/fish (cm) Mean [21]: 34.15 cm
Weight/fish (g) Mean [21]: 881.92 g
Δ Mean % (Treatment vs. control) Length/fish [21]: −0.67%
Δ Mean % (Treatment vs. control) Weight/fish [21]: 1.92%
% big fish (Big fish 279 dph >1000 g) [22]: 12.0%
% small fish (Small fish 279 dph >476 g) [22]: 8.6%
Δ Treatment - Control (%) big fish (>1000 g) [22]: 1.8%
Δ Treatment - Control (%) small fish (>476 g) [22]: −0.5%
Big fish # (Big fish 279 dph >1000 g) [23]: 53
Small fish # (Small fish 279 dph) [23]: 38
Average FCR/cage [22]: −0.53%
Average density (body/cage) [22]: −1.78%
Average weight gain/fish (g) [22]: 7.59%

Source: patent publication US20220167645A1, “METHODS OF IMPROVING FISH FEED CONVERSION RATE AND SURVIVAL” (AQUINOVO LTD., priority 2019, published 2022)
